Measured values reported in patent publication US20120244102A1, “AGENT FOR PREVENTING OR TREATING CROHN'S DISEASE, COMPRISING ORGANIC ACID POLYMER” (SANWA KAGAKU KENKYUSHO CO., LTD., priority 2010, published 2012).

Test system: mouse TNBS-induced Crohn's disease model
Assay: mouse TNBS-induced Crohn's disease model (pathological score, intestinal lesion score)
Type: in vivo
Conditions: for intestinal lesion score: scale 0-10, control group 8.1
Experimental: Seven-week-old male BALB/c Cr Slc mice were purchased from Japan SLC, Inc. After 5 days of breeding for taming, the mice were divided into 5 groups so as to eliminate the difference between body weights, and subjected to an experiment.
The hair on 2 square-cm of the abdomen of the mouse was shaved, and 1% TNBS was applied to the skin. At 7 days after the application of TNBS, the mouse was fixed under anesthesia by halothane inhalation, and 100 μL of 2.0% TNBS was injected from the rectum to initiate intestinal lesions in Crohn's disease.
In the propagermanium-administered group, 0.015% of the propagermanium was mixed with a standard feedstuff for mice CRF-1 (manufactured by Oriental Yeast Co., Ltd.) and administered by ad libitum feeding from immediately after the injection of TNBS to 3 days after the initiation. The average dose during the period of the administration of the propagermanium was calculated to be about 7.5 mg/kg/day as a dose of the propagermanium per day, from the body weight and food consumption.
In the prednisolone-administered group as a positive control, prednisolone was administered once a day as 10 mL/kg of 0.5% CMC suspension using an oral canula for mice from immediately after the injection of TNBS to 3 days after the initiation. The dose was set to be 1 mg/kg/day that is the maximum amount of a clinical general dose (30 to 40 mg/day/person).
In the salazosulfapyridine-administered group as a positive control, salazosulfapyridine was administered twice a day for 3 days as 10 mL/kg of 0.5% CMC suspension using an oral canula for mice from immediately after the injection of TNBS to 3 days after the initiation. Two dose groups: a low dose group (133 mg/kg/day) that is the maximum amount in view of a clinical general dose and a high dose group (400 mg/kg/day) that is effective in rat TNBS models, were set.
At 1, 2 and 3 days after the TNBS initiation, the pathological score (the total of the scores of weight-loss, diarrhea/loose stool and occult blood/hemorrhage) was evaluated according to the following criteria.
(A) Weight-loss score (when the body weight before the TNBS initiation is considered to be 100%) • 0: No decrease • 1: Decreased by within 5% • 2: Decreased by 5-10% • 3: Decreased by 10-20% • 4: Decreased by more than 20%
(B) Diarrhea/loose stool score • 0: Normal. A solid form is maintained. • 2: Semi-solid loose stool. Wet, and readily collapses when being touched. • 4: Diarrhea, with flowability.
(C) Occult blood/hemorrhage score • 0: Normal. No blood is incorporated in stool. • 2: Occult blood. Blood is incorporated in stool. Perianal is slightly dirty. • 4: Bloody stool. Blood is incorporated in stool. Perianal is dirty with blood.
At 3 days after the TNBS initiation, Evans Blue was administered intravenously. At 30 minutes after the administration, the mouse was sacrificed by cervical dislocation, from the colon to the anus were excised and the inner cavity was washed with physiological saline, the lumen was opened, and the degree of the lesions was scored. The intestinal lesion score was evaluated by observing the colon by using a stereomicroscope according to the following criteria. • 0: No damage. • 1: Hyperemia • 2: Hyperemia and thickening of gut walls. No ulcer. • 3: Ulcer is present, but is not thickened. • 4: Plural lesion sites are present. • 5: Widespread lesion sites (1 cm or more in total) • 6: Widespread lesion sites (1.5 cm or more in total) • 7: Widespread lesion sites (2 cm or more in total) • 8: Widespread lesion sites (2.5 cm or more in total) • 9: Widespread lesion sites (3 cm or more in total) • 10: Widespread lesion sites (3.5 cm or more in total)

Molecule: 3-oxygermylpropionic acid polymer [propagermanium]
- pathological score (total of weight-loss, diarrhea/loose stool and occult blood/hemorrhage scores) (7.5 mg/kg propagermanium mixed in feed, 2 days after the TNBS initiation): significant effect of improving the pathological score was confirmed
- pathological score (total of weight-loss, diarrhea/loose stool and occult blood/hemorrhage scores) (7.5 mg/kg propagermanium mixed in feed, 3 days after the TNBS initiation): significant effect of improving the pathological score was confirmed

Molecule: C[C@]12C=CC(=O)C=C1CC[C@@H]1[C@@H]2[C@@H](O)C[C@@]2(C)[C@H]1CC[C@]2(O)C(=O)CO [prednisolone]
- pathological score (total of weight-loss, diarrhea/loose stool and occult blood/hemorrhage scores) (1 mg/kg prednisolone oral, 2 days after the initiation): effect was not observed
- pathological score (total of weight-loss, diarrhea/loose stool and occult blood/hemorrhage scores) (1 mg/kg prednisolone oral, 3 days after the initiation): effect was observed
- intestinal lesion score (prednisolone 1 mg/kg oral, 3 days after the TNBS initiation): 5.2

Molecule: O=C(O)c1cc(/N=N/c2ccc(S(=O)(=O)Nc3ccccn3)cc2)ccc1O [salazosulfapyridine]
- pathological score (total of weight-loss, diarrhea/loose stool and occult blood/hemorrhage scores) (133 mg/kg salazosulfapyridine oral (low dose group)): significant improving effect was not observed
- pathological score (total of weight-loss, diarrhea/loose stool and occult blood/hemorrhage scores) (400 mg/kg salazosulfapyridine oral (high dose group), 2 days after the initiation): improving effect was found
- pathological score (total of weight-loss, diarrhea/loose stool and occult blood/hemorrhage scores) (400 mg/kg salazosulfapyridine oral (high dose group), 3 days after the initiation): improving effect was found
- intestinal lesion score (salazosulfapyridine 133 mg/kg oral, 3 days after the TNBS initiation): 6.1
- intestinal lesion score (salazosulfapyridine 400 mg/kg oral, 3 days after the TNBS initiation): 6.8
